Data as given in ChEMBL document CHEMBL5150038, “Small-Molecule Receptor-Interacting Protein 1 (RIP1) Inhibitors as Therapeutic Agents for Multifaceted Diseases: Current Medicinal Chemistry Insights and Emerging Opportunities” (J Med Chem, 2022).

Experiments:
Hepatocyte = assay: Metabolic clearance in human hepatocyte assessed as clearance; assay type: ADME, cell-based; settings: hepatocytes
[1] = Metabolic clearance in rat hepatocyte assessed as clearance measured per 10^6 cells; assay type: ADME, cell-based; settings: hepatocytes, read-out: CLH

CLH (Hepatocyte): 42 µL/min/mg
hepatocyte CLint [1]: 87 µL/min/1e6 cells
Structure (SMILES): O=C(c1cnn(Cc2ccccc2)c1)N1CCOc2ccccc2C1
